For series [1], the system named is Staphylococcus aureus ATCC 6538P. Put plainly: disc plate assay (microbiological assay). It counts as cell-based.
The subject of series [2] is Streptococcus pyogenes C. Put plainly: MIC in vitro (Table VIII). The note with it: for MIC: pH 7.4, read-out: Minimum Inhibitory Concentration - MIC.
Series [3] concerns Streptococcus pyogenes 6. The experiment in a line: MIC in vitro (Table VIII). Conditions: for MIC: pH 7.4, read-out: Minimum Inhibitory Concentration - MIC.
In series [4] the test system is Aerobacter aerogenes 3. The experiment in a line: MIC in vitro (Table VIII).
Series [5] concerns Aerobacter aerogenes 4. Put plainly: MIC in vitro (Table VIII). Conditions: for MIC: pH 7.4, read-out: Minimum Inhibitory Concentration - MIC.
Series [6] deals with Escherichia coli Sc. The experiment in a line: MIC in vitro (Table VIII). The note with it: for MIC: pH 7.4, read-out: Minimum Inhibitory Concentration - MIC.
Series [7] relates to Escherichia coli 5. The experiment in a line: MIC in vitro (Table VIII). Conditions: for MIC: pH 7.4, read-out: Minimum Inhibitory Concentration - MIC.
Series [8] has as its system Escherichia coli 19. The experiment in a line: MIC in vitro (Table VIII). The note with it: for MIC: pH 7.4, read-out: Minimum Inhibitory Concentration - MIC.
Series [9] relates to Klebsiella pneumoniae Ad KR. The experiment in a line: MIC in vitro (Table VIII). The note with it: for MIC: pH 7.4, read-out: Minimum Inhibitory Concentration - MIC.
The test system of series [10] is Klebsiella pneumoniae 17 KR. Put plainly: MIC in vitro (Table VIII). Conditions: for MIC: pH 7.4, read-out: Minimum Inhibitory Concentration - MIC.
Series [11] deals with Proteus mirabilis MeF. The experiment in a line: MIC in vitro (Table VIII). Conditions: for MIC: pH 7.4, read-out: Minimum Inhibitory Concentration - MIC.
Series [12] concerns Proteus vulgaris 2. The experiment in a line: MIC in vitro (Table VIII). Conditions: for MIC: pH 7.4, read-out: Minimum Inhibitory Concentration - MIC.
In series [13] the test system is Pseudomonas aeruginosa 8689. The experiment in a line: MIC in vitro (Table VIII). Conditions: for MIC: pH 7.4, read-out: Minimum Inhibitory Concentration - MIC.
In series [14] the test system is Pseudomonas aeruginosa Miller. The experiment in a line: MIC in vitro (Table VIII). The note with it: for MIC: pH 7.4, read-out: Minimum Inhibitory Concentration - MIC.
In series [15] the test system is Salmonella paratyphi B1. Put plainly: MIC in vitro (Table VIII). Conditions: for MIC: pH 7.4, read-out: Minimum Inhibitory Concentration - MIC.
Series [16] relates to Salmonella paratyphi B2. Put plainly: MIC in vitro (Table VIII). The note with it: for MIC: pH 7.4, read-out: Minimum Inhibitory Concentration - MIC.
Series [17] deals with Candida albicans 406. The experiment in a line: MIC in vitro (Table VIII). Conditions: for MIC: pH 7.4, read-out: Minimum Inhibitory Concentration - MIC.
The subject of series [18] is Candida albicans 401. Put plainly: MIC in vitro (Table VIII). The note with it: for MIC: pH 7.4, read-out: Minimum Inhibitory Concentration - MIC.
The test system of series [19] is Candida albicans 411. The experiment in a line: MIC in vitro (Table VIII). Conditions: for MIC: pH 7.4, read-out: Minimum Inhibitory Concentration - MIC.
The subject of series [20] is Saccharomyces cerevisiae. The experiment in a line: MIC in vitro (Table VIII). The note with it: for MIC: Saccharomyces cerevisiae, pH 7.4, read-out: Minimum Inhibitory Concentration - MIC.
Series [21] concerns Staphylococcus aureus 209P. The experiment in a line: MIC in vitro (Table VIII). The note with it: 24 hours; yeast beef broth (pH 7.4).
In series [22] the test system is gram positive and gram-negative bacteria. It counts as cell-based.
In series [23] the test system is kanamycin resistant bacteria. The series is classed as cell-based.
In series [24] the test system is bacteria. It counts as cell-based.
Series [25] deals with yeast. The series is classed as cell-based.
For series [26], the system named is gram-positive and gram-negative organisms. Also noted: species or system mice. Conditions: mouse.
Series [27] is described as follows: physchem.
Series [28] relates to Staphylococcus aureus Gray. Also noted: species or system mice. Conditions: mouse, in vivo, sc.
Series [29] deals with Streptococcus pyogenes C. More on the design: species or system mice. Conditions: mouse, in vivo, sc.
The test system of series [30] is Escherichia coli 10536. More on the design: species or system mice. Conditions: mouse, in vivo, sc.
In series [31] the test system is Pseudomonas aeruginosa 8689. More on the design: species or system mice. The note with it: mouse, in vivo, sc.
The mark [32] stands for this setting: 24 hours, yeast beef broth (pH 7.4).
Where [33] appears, read: 24 hours, yeast beef broth (pH 7.4), kanamycin-resistant.

Where a name gives a salt, the structure may show the parent alone. Read-outs that look alike come from different tables or passages of the source.

The record followed here is US3951746A, “Antibiotics and process for their manufacture” (Schering Corporation, priority 1975, dated 1976).

By pKa is commonly meant the pH at which an ionisable group is half protonated.

As to `CN[C@@H]1[C@@H](O)[C@@H](O[C@@H]2[C@@H](O)[C@H](O[C@H]3OC(C(C)N)=CC[C@H]3N)[C@@H](N)C[C@H]2N)OC[C@]1(C)O` (stereo partly shown) [Verdamicin I Sulfate], the “assay potency in the gentamicin assay” value in series [1] (gentamicin assay) was 674 µg/mg. Besides, the MIC in series [2] (24 h) was determined as 0.75 µg/mL; in [2] (48 h) it was 3 µg/mL; in series [3] (24 h), 0.3 µg/mL; in series [3] (48 h) it was 0.75 µg/mL; in series [4] (24 h, pH 7.4, read-out: Minimum Inhibitory Concentration - MIC) it was 0.3 µg/mL; in [5] (24 h), 0.3 µg/mL. In addition, the MIC in [5] (48 h) was determined as 0.3 µg/mL; in [6] (24 h), 0.3 µg/mL; in [6] (48 h), 0.75 µg/mL; in series [7] (24 h), 0.3 µg/mL; in series [7] (48 h), 0.75 µg/mL; in series [8] (24 h), 0.3 µg/mL. Besides, the MIC in [8] (48 h), in series [9] (24 h), in series [9] (48 h), in [10] (24 h), in [10] (48 h) and in [11] (24 h) was 0.3 µg/mL each time. Moreover, the MIC worked out at 0.3 µg/mL in series [11] (48 h); 0.3 µg/mL in series [12] (24 h); 0.3 µg/mL in [12] (48 h); 0.075 µg/mL in series [13] (24 h); 0.3 µg/mL in series [13] (48 h); 0.75 µg/mL in [14] (24 h). The MIC in [14] (48 h) is 0.75 µg/mL; in series [15] (24 h), 0.3 µg/mL; in [15] (48 h), 0.75 µg/mL; in series [16] (24 h), 0.3 µg/mL; in [16] (48 h), 0.3 µg/mL; in series [17] (24 h), above 10 µg/mL. Further, the MIC in series [17] (48 h), in series [18] (24 h), in series [18] (48 h), in series [19] (24 h), in [19] (48 h) and in series [20] (24 h) was above 10 µg/mL throughout. For the same compound, in [20] (48 h), the MIC is above 10 µg/mL.
Take Gentamicin Sulfate [reference compound]: the “Minimum Inhibitory Concentration - MIC” value came out at 0.1 µg/mL in [21]; 3.0 µg/mL in series [2] (setting [32]); 1.0 µg/mL in series [3] (setting [32]); 0.6 µg/mL in series [4] (setting [32]); 0.3 µg/mL in series [5] (setting [32]); 0.75 µg/mL in series [6] (setting [32]). Besides, the “Minimum Inhibitory Concentration - MIC” value in series [7] (setting [32]), in series [8] (setting [32]), in series [9] (setting [33]), in series [10] (setting [33]), in [11] (setting [32]) and in series [12] (setting [32]) was 0.3 µg/mL each time. Further, the “Minimum Inhibitory Concentration - MIC” value in series [13] (setting [32]) was 0.3 µg/mL; in series [14] (setting [32]), 0.5 µg/mL; in series [15] (setting [32]) it was 1.0 µg/mL; in series [16] (setting [32]), 0.5 µg/mL; in [17] (setting [32]), above 50 µg/mL; in [18] (setting [32]), above 50 µg/mL. Also, the “Minimum Inhibitory Concentration - MIC” value in series [19] (setting [32]) and in series [20] (setting [32]) was above 50 µg/mL throughout.
For the compound `CN[C@@H]1[C@@H](O)[C@@H](O[C@@H]2[C@@H](O)[C@H](O[C@H]3OC(C(C)N)=CC[C@H]3N)[C@@H](N)C[C@H]2N)OC[C@]1(C)O` (stereo partly shown) [Verdamicin I], in series [1], the “assay potency in the gentamicin assay” value was found to be 1000 µg/mg and the dose response curve result is listed as “parallel to that of gentamicin”. The “antibacterial activity in vitro” value in series [22] was “broad spectrum of antibacterial activity”. The “activity against kanamycin resistant bacteria” value in series [23] is given as “active against kanamycin resistant bacteria”. The “cross resistance with gentamicin” value in series [24] is “appears to be cross resistant with gentamicin”. Moreover, the “in vitro activity against yeast” value in series [25] is on record as “does not exhibit any substantial in vitro activity against yeast”. Further, the “antibacterial activity in vivo” value in series [26] is recorded as “potent antibacterial agent”. The compound further yielded a pKa in series [27] of 8.1.
As to Gentamicin, the PD50 in series [28] was 2.4 mg/kg; in series [29], 5.0 mg/kg; in [30], 1.7 mg/kg; in series [31], 1.7 mg/kg.
